# According to ChEMBL document CHEMBL1201862, “PubChem BioAssay data set” (2004):
# The source made the active and inactive calls.
# Assays:
# [1] = molecular target: T1, Polyadenylate-binding protein 1 (Homo sapiens, UniProt P11940); assay: PABP inhibition in translation initiation, SAR follow-up (AID 435018); assay type: functional
# [2] = molecular target: T2, Eukaryotic translation initiation factor 4H (Homo sapiens, UniProt Q15056); assay: inhibitors of translation initiation factor eIF4H – SAR follow-up (AID 435011); assay type: functional
# [3] = molecular target: T2, Eukaryotic translation initiation factor 4H; assay: eIF4H binding inhibition – biochemical, uHTS, fluorescence polarization, translation initiation inhibitor project, primary screen (AID 2012)
# [4] = molecular target: T1, Polyadenylate-binding protein 1; assay: blockers of PABP interaction with poly(A) – biochemical, fluorescence polarization, […] (AID 2014)
# Vero [5] = assay: host cell viability loss, Vero E6 – synthesized analogs, cytotoxicity control for West Nile virus antiviral project, SAR follow-up (AID 2244); assay type: functional; details: Chlorocebus sabaeus
# Procathepsin L = Procathepsin L (Homo sapiens, UniProt P07711)
# Sequence of Procathepsin L (P07711 whole entry): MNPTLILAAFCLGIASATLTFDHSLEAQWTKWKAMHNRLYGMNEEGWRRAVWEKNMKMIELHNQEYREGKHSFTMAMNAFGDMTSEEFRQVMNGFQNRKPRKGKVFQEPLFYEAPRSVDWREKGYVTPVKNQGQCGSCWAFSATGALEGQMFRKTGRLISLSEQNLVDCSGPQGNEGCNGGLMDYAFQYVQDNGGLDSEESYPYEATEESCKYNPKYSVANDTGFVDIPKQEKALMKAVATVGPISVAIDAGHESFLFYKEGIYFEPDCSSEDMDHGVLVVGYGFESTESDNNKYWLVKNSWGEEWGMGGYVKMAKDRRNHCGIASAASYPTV
# Aspartyl aminopeptidase = molecular target: T3, Aspartyl aminopeptidase (Plasmodium falciparum 3D7, UniProt Q8I2J3)
# T3 sequence (Q8I2J3 whole entry): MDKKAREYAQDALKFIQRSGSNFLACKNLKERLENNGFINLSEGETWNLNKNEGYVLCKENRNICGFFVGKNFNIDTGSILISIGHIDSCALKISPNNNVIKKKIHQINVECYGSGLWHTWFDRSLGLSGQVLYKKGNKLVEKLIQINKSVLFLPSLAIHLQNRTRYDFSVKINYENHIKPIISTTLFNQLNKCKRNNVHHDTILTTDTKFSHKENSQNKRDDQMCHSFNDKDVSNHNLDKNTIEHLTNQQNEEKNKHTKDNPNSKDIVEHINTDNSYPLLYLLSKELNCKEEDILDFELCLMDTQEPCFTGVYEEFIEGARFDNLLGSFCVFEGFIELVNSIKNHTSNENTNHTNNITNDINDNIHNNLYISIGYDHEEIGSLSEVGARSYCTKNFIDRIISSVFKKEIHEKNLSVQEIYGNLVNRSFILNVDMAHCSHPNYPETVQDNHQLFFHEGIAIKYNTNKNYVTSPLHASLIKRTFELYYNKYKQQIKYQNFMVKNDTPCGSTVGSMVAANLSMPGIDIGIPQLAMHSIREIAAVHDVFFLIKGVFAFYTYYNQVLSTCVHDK
# Staphylococcus aureus = assay: Inhibitors of Bacterial Quorum Sensing Structure Activity Relationship (SAR) Analysis: Dose Response Assay. [Related pubchem assays: 700, 527 ]; assay type: functional, organism-based
# [6] = molecular target: G-protein coupled receptor 35 (Homo sapiens, UniProt Q9HC97); assay: inhibition of zaprinast-stimulated GPR35 beta-arrestin translocation – imaging, U2OS, beta-arrestin-GFP, zaprinast agonist, primary screen (AID 2058); assay type: functional;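 further: antagonist potency meaning inhibition of agonist-induced arrestin redistribution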
# Sequence of G-protein coupled receptor 35 (Q9HC97 whole entry): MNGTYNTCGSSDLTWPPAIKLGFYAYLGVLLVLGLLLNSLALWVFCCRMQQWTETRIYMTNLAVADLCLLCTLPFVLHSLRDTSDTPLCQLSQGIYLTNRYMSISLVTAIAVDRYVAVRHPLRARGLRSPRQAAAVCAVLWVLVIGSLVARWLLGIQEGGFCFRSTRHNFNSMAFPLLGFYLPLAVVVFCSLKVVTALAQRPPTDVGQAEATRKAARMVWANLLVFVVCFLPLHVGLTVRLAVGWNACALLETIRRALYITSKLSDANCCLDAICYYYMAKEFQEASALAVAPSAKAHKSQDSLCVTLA
# [7] = molecular target: Acyl-homoserine lactone acylase PvdQ (Pseudomonas aeruginosa (strain LESB58), UniProt Q9I194); assay: PvdQ acylase enzyme activity blockers – biochemical, fluorescence, plate reader and imaging, cherry-picks, dose response (AID 493231)
# Sequence of Acyl-homoserine lactone acylase PvdQ (Q9I194 24-193 limits assumed): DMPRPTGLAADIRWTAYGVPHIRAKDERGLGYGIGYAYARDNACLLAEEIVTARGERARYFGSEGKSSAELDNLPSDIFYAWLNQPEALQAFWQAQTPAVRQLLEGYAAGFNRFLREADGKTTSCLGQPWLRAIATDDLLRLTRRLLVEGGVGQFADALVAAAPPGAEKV
# Sequence of Acyl-homoserine lactone acylase PvdQ (Q9I194 217-762 limits assumed): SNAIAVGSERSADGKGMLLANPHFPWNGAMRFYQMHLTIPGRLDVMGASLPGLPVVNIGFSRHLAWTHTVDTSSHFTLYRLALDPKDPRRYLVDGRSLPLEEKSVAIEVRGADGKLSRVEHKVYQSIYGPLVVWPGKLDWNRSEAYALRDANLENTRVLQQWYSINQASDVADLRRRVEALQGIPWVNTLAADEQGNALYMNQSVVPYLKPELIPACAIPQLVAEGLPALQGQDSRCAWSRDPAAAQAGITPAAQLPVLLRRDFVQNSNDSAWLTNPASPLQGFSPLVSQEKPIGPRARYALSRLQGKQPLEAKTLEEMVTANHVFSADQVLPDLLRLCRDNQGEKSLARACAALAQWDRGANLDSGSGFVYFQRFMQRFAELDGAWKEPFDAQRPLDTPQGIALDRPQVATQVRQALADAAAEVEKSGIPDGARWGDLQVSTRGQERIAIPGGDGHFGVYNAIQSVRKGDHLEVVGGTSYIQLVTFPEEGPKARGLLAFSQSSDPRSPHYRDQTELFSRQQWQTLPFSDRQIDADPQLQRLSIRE
# Chaperone protein dnaK = Chaperone protein dnaK (Escherichia coli, UniProt C3TRK2); assay: E. coli DnaK binders, calorimetric Kd – biophysical, isothermal titration calorimetry, beta-domain, full-length DnaK, orthogonal assay for DnaK modulator project, SAR follow-up (AID 1495)
# Sequence of Chaperone protein dnaK (C3TRK2 whole entry): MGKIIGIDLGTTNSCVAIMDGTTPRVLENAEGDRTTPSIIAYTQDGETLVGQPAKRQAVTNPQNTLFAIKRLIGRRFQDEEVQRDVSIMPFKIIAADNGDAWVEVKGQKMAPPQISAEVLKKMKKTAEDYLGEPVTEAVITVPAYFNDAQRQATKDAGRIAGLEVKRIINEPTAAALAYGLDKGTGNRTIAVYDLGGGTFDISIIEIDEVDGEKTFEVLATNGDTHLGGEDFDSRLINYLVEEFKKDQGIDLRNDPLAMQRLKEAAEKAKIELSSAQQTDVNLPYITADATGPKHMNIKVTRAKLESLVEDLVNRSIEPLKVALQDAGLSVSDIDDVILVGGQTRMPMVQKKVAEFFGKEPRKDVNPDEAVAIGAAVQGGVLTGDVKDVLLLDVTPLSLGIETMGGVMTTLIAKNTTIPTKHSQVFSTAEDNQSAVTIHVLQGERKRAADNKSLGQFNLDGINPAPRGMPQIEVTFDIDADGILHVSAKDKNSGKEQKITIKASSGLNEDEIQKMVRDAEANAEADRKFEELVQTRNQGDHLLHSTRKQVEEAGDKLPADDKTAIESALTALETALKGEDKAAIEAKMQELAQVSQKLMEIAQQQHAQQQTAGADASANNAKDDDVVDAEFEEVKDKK
# Trypsin = Trypsin (Sus scrofa, UniProt P00761); assay: trypsin protease activity blockade – biochemical, quenched peptide fluorescence, cherry-pick, selectivity assay for Rce1 protease inhibitor project, dose response (AID 488789)
# [8] = molecular target: Melanin-concentrating hormone receptor 1 (Homo sapiens, UniProt Q99705); assay: Late-stage fluorescence-based counterscreen for antagonists of the G-protein coupled receptor 7 (GPR7): cell-based dose response assay to identify antagonists of the melanin-concentrating hormone receptor 1 (MCHR1). [Related pubchem assays (depositor defined):AID1861, AID1880, AID1952, AID2148, AID2251, AID2257, AID485339]; assay type: functional;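 further: stimulated with 30 nM MCH peptide agonist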
# Sequence of Melanin-concentrating hormone receptor 1 (Q99705 whole entry): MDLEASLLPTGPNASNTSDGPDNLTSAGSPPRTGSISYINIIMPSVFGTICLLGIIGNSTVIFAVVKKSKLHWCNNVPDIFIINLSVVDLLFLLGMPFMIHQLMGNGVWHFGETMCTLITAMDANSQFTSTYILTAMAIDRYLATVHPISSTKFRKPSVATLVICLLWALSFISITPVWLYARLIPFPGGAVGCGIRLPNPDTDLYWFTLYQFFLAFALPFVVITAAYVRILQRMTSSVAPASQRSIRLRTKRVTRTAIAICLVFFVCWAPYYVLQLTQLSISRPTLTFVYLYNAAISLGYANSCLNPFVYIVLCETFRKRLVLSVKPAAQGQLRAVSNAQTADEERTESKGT
# [9] = molecular target: T4, Neuropeptides B/W receptor type 1 (Homo sapiens, UniProt P48145); assay: human NPBW1 receptor blockade, IC50 – cell-based, fluorescence, dose response, late-stage follow-up (AID 463251); assay type: functional
# T4 sequence (P48145 whole entry): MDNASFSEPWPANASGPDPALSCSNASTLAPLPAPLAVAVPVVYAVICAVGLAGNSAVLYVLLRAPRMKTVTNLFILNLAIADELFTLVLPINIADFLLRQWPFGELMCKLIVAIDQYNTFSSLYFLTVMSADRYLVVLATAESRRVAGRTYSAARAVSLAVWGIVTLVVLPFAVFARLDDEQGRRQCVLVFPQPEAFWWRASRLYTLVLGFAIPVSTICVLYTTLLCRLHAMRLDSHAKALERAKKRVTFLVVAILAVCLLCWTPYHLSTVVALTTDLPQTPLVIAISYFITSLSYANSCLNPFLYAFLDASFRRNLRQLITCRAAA
# [10] = non-PhoP GFP expression and growth suppression – purified and synthesized compounds, set 2, counter-screen for PhoP regulon inhibitor project, dose response (AID 2834); assay type: functional
# [11] = molecular target: Cyclin-dependent kinase 5/CDK5 activator 1 (Homo sapiens, UniProt Q00535); assay: blockade of human CDK5 activity – biochemical, cherry-picked samples, set 2, dose response (AID 504545)
# Sequence of Cyclin-dependent kinase 5/CDK5 activator 1 (Q00535 whole entry): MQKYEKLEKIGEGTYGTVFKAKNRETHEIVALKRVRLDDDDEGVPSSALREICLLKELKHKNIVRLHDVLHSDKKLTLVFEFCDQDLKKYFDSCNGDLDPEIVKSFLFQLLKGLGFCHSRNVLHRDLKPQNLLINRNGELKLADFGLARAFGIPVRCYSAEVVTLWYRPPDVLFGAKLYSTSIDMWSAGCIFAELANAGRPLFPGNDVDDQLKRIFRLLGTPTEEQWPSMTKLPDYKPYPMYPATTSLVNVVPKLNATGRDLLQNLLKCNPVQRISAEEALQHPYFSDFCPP
# Sequence of Cyclin-dependent kinase 5/CDK5 activator 1 (Q15078 whole entry, further chain): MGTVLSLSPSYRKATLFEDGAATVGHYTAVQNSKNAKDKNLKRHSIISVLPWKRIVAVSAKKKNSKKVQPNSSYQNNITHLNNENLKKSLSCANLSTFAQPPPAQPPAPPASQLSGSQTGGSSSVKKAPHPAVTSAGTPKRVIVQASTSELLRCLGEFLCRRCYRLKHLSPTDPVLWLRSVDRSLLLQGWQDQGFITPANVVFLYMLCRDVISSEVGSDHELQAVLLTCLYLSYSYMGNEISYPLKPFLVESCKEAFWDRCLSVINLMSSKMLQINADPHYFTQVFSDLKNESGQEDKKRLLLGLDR
# H4 = assay: Luminescence Cell-Based Dose Response HTS to Identify Activators of 5'UTR Stem-Loop Driven Prion Protein mRNA Translation in H4 Neuroglioblastoma Cells. [Related pubchem assays: 1829 (Project Summary), 1814 (Primary HTS)]; assay type: functional; details: Homo sapiens
# [12] = fluconazole-exposed Candida albicans growth modulators – fluorescence, retest, confirmation (AID 2467); assay type: functional, cell-based
# [13] = molecular target: NACHT, LRR and PYD domains-containing protein 3 (Homo sapiens, UniProt Q96P20); assay: NALP3 inhibitors in yeast, dose response, luminescent (AID 488799); assay type: functional
# Sequence of NACHT, LRR and PYD domains-containing protein 3 (Q96P20 whole entry, the tested form may be a part): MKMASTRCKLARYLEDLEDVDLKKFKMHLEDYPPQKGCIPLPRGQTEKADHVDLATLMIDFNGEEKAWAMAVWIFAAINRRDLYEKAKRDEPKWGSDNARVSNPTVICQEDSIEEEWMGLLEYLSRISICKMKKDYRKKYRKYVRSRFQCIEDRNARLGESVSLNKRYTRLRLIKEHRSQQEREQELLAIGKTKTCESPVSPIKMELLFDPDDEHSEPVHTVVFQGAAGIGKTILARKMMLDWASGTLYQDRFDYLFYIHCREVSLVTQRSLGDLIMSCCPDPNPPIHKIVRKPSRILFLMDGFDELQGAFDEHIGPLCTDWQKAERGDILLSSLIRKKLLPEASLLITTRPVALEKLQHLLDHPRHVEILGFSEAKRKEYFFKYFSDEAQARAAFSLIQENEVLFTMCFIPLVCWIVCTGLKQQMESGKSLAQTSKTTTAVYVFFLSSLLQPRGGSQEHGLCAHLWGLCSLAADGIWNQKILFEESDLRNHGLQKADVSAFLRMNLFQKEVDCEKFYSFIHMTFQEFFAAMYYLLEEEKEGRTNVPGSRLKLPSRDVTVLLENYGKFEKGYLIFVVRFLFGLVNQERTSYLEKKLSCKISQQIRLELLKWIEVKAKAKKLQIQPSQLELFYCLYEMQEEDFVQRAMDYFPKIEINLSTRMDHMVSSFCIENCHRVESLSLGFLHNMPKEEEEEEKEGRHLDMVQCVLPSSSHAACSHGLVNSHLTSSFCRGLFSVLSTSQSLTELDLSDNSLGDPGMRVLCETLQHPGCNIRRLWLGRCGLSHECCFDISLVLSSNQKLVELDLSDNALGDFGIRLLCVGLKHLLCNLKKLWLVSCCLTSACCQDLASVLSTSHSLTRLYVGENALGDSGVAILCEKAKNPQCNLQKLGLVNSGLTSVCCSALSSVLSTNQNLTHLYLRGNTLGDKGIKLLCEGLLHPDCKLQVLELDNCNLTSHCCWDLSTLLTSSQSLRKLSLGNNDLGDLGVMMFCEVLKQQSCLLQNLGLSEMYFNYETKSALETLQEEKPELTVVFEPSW
# [14] = NIH-3T3 fibroblast cytotoxicity, dose response, cytotoxicity control, cell-based, fluorescence, Alamar Blue, secondary assay (AID 2327); assay type: functional;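 further: NIH-3T3 mouse fibroblasts cultured with fluconazole at 8 µg/mL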
# [15] = reduction of Shn3 3'UTR-driven luciferase in osteoblasts – cell-based, Clone20 osteoblasts, firefly luciferase, cherry-picked, dose response (AID 624132); assay type: functional;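 further: firefly luciferase luminescence from reporter carrying the Shn3 3'UTR in osteoblasts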
# [16] = DRD fibroblast viability loss – cell-based, non-viral oncogenic, luminescence, dose response (AID 1934); assay type: functional; details: Homo sapiens
# [17] = molecular target: T5, Serine/threonine-protein phosphatase (Candida dubliniensis (strain CD36 / CBS 7987 / NCPF 3949 / NRRLY-17841) (Yeast), UniProt B9W6M3); assay: blockers of CaCl2-induced CDRE-lacZ signaling – S. cerevisiae, luminescence, secondary, dose response (AID 2388); assay type: functional, cell-based;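 further: yeast reporter cells carrying a calcineurin-responsive lacZ construct stimulated with calcium chloride; luminescent beta-galactosidase reporter signal in whole cells rather than isolated phosphatase activity; potency for inhibition where a drop in reporter signal means calcineurin blockade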
# T5 sequence (B9W6M3 whole entry): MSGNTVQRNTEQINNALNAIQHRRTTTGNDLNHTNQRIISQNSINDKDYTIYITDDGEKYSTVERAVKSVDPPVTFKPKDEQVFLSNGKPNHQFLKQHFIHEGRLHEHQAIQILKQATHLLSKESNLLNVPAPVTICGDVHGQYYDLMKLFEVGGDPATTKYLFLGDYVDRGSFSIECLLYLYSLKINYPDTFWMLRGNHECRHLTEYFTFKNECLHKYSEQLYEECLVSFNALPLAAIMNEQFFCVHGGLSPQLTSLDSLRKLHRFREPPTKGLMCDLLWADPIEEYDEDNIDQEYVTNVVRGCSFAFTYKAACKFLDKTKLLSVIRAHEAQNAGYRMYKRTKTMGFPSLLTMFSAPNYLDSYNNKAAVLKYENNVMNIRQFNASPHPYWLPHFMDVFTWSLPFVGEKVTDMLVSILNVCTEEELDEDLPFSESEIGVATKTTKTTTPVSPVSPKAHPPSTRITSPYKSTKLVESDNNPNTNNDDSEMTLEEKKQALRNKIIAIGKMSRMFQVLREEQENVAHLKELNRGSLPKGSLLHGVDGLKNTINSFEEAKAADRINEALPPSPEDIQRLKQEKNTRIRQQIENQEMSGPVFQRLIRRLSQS
# Vero [18] = assay: cells; assay type: functional; details: Chlorocebus sabaeus
# [19] = HEK-293T viability loss, compound-treated – cell-based, uHTS hits, cytotoxicity control for B/T-cell NF-kB inhibitor project, dose response (AID 489019); assay type: functional;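 further: IC50 reflects cytotoxicity as loss of cell viability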
# Vero [20] = assay: mammalian cell viability reduction – secondary assay, cytotoxicity control for West Nile virus antiviral project, dose response (AID 1650); assay type: functional; details: Chlorocebus sabaeus
# BJ [21] = assay: cells; assay type: functional, cell-based; details: Homo sapiens
# Jurkat = assay: blockers of NF-kB activation in T cells – Jurkat, luciferase reporter, luminescence, B- and T-cell, dose response (AID 489004); assay type: functional, cell-based; details: Homo sapiens;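 further: NF-kB luciferase reporter Jurkat cells stimulated with PMA plus ionomycin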
# BJ [22] = assay: BJ-TERT-LT-ST fibroblast viability loss – cell-based, RAS-independent, luminescence, dose response (AID 1935); assay type: functional; details: Homo sapiens;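 further: BJ fibroblasts immortalized with TERT plus LT and ST oncogenes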
# [23] = non-specific 3'UTR reporter inhibition in Clone20-Shn3RL – cell-based, Renilla luciferase, cherry-picked, counter-screen for Shn3 inhibitor project, dose response (AID 624133); assay type: functional
# [24] = loss of viability in HepG2 cells – cell-based, CellTiter-Glo, cherry-picked, cytotoxicity control for Shn3 inhibitor project, dose response (AID 624134); assay type: functional
# BJ [25] = assay: BJ-TERT fibroblast viability loss – cell-based, RAS-independent, luminescence, dose response (AID 1933); assay type: functional; details: Homo sapiens
# T1 sequence (P11940 whole entry): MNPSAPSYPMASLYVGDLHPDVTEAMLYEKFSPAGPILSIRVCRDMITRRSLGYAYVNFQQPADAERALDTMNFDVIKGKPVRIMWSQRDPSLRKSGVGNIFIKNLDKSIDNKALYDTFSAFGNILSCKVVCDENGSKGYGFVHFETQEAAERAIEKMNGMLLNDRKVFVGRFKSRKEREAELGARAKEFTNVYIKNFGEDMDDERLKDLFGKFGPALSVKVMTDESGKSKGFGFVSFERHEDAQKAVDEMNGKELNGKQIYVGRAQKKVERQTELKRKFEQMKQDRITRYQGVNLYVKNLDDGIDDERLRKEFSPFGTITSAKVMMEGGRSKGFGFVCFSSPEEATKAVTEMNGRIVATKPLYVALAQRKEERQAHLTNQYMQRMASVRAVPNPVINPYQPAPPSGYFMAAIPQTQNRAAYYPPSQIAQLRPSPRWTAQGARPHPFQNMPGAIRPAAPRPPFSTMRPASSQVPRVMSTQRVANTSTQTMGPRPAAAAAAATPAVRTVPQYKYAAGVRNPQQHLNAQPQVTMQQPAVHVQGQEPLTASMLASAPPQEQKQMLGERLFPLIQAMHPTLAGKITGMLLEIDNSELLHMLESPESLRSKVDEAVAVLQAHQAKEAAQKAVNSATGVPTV
smiles,measurement,setting,value
CCn1c(=O)n(CC)c2cc(NC(=O)C(C)c3ccccc3)c(Br)cc21 (configuration not stated),IC50,[1],9.4 µM (active)
same,IC50,[2],> 100 µM (inactive)
same,IC50,[3],> 100 µM (inactive)
same,IC50,[4],21.5 µM (active)
O=C(Nc1nc(-c2ccccc2)cs1)c1ccccc1Cl,CC50,Vero [5],14 µM (active)
O=C(Nn1cnnc1)c1ccccc1-c1ccccc1,IC50,Procathepsin L,> 59.6 µM (not active)
same,IC50,Aspartyl aminopeptidase,2.89 µM (active)
CC1CCCN(C(C(=O)Nc2ccc3c(c2)OCCO3)c2ccccc2)C1 (configuration not stated),IC50,Staphylococcus aureus,0.125 µM (active)
CN1CC=C2C(C#N)=C(N)C(C#N)(C#N)C(c3ccsc3)C2C1 (configuration not stated),IC50,[6],0.991 µM (active)
O=C1N[C@@H](Cc2ccccc2)[C@@H](c2ccco2)O1,AC50,[7],7.07 µM (active)
O=C(NCc1ccccc1Br)c1cccs1,Kd,Chaperone protein dnaK,39.3 µM (inactive)
Cc1ccc(C(=O)N2N=C(c3ccccc3O)CC2c2ccccc2)cc1 (configuration not stated),AC50,Trypsin,67.6 µM (active)
COc1ccc(Oc2c(Cl)cnn(-c3ccc(I)cc3)c2=O)cc1,IC50,[8],4.7 µM (active)
same,IC50,[9],1 µM (active)
O=C1C2=C(Nc3ccccc3SC2c2ccc(I)cc2)c2ccccc21 (configuration not stated),IC50,[10],232 µM (active)
CC(C)n1cnc2c(Nc3ccc(F)c(Cl)c3)nc(NCCO)nc21,AC50,[11],3.36 µM (active)
C[C@@H]1C[C@@H]2O[C@H]2/C=C\C=C\C(=O)Cc2c(Cl)c(O)cc(O)c2C(=O)O1,EC50,H4,> 120 µM (not active)
same,EC50,[12],0.049 µM (active)
same,IC50,[13],8.41 µM (active)
same,EC50,[14],44.5 µM (inconclusive)
same,AC50,[15],6.4 µM (active)
same,EC50,[16],2.08 µM (active)
same,EC50,[17],> 180 µM (inactive)
same,CC50,Vero [18],15.8 µM (active)
same,IC50,[19],> 80 µM (inactive)
same,CC50,Vero [20],3.11 µM (active)
same,EC50,BJ [21],0.309 µM (active)
same,IC50,Jurkat,0.21 µM (active)
same,EC50,BJ [22],1.81 µM (active)
same,AC50,[23],12.3 µM (active)
same,AC50,[24],49.8 µM (active)
same,EC50,BJ [25],21 µM (active)
